These results are taken from patent US20230151003A1, “COMPOUNDS AND METHODS OF USE” (Exelixis, Inc., priority 2020, published 2023).

Molecules are shown by their SMILES. Counter-ions that a name gives are not always drawn.

One experiment deals with Met (Homo sapiens, UniProt P08581). Put plainly: Met autophosphorylation ELISA in PC-3 cells. Format: cell-based. Also on record: endogenous in cells; host or cells: PC-3 prostate cancer cells (ATCC #CRL-1435). The following applies: Table 3 Cellular Activities, HGF-stimulated, phospho-Met ELISA, read-out: c-Met IC50. In outline: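 Serum-starved (3 h) PC-3 cells pre-incubated 1 h with compound (8-point dose curve, 0.3% DMSO), then stimulated with 100 ng/mL recombinant human HGF for 10 min. Lysate phospho-Met (panTyr) measured by sandwich ELISA; IC50 from 4-parameter logistic fit, normalised to DMSO (100%) and reference-inhibitor (0%) controls.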
Sequence of Met (P08581 25-1390): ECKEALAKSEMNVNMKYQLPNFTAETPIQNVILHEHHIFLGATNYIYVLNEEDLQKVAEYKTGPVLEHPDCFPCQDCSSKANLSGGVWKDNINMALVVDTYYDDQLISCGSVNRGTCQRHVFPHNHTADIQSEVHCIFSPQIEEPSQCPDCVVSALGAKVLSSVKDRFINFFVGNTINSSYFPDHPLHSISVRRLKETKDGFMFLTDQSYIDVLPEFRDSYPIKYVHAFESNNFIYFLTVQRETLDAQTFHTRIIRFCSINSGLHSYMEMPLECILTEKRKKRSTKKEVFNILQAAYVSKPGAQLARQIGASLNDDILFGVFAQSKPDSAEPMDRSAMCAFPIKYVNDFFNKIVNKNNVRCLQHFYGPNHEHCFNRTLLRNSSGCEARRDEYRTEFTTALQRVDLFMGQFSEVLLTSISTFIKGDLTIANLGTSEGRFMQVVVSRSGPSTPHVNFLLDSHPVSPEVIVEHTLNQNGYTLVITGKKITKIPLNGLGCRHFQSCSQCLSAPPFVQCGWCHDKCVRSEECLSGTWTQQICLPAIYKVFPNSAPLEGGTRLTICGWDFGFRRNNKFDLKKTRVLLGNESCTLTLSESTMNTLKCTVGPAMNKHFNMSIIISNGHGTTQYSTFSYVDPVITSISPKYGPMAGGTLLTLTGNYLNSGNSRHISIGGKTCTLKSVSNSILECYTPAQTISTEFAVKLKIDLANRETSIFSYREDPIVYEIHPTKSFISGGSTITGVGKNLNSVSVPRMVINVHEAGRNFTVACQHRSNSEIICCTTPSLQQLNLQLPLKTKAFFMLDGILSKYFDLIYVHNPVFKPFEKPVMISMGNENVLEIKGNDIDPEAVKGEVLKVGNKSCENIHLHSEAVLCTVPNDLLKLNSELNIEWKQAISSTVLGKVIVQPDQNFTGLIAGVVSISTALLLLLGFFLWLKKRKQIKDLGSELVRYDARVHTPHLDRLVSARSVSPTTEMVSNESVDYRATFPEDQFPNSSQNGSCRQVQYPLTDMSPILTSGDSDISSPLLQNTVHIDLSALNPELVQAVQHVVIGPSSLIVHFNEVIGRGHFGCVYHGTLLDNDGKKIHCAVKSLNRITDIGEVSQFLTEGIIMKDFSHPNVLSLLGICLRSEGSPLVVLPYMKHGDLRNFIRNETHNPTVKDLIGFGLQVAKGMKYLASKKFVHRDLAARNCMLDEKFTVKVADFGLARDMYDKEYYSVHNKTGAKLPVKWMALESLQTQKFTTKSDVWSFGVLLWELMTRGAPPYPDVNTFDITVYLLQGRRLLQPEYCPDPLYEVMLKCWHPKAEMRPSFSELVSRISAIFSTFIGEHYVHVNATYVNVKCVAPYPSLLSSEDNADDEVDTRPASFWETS
(In general: ELISA stands for enzyme-linked immunosorbent assay.)

The next experiment addresses T1, AXL (Homo sapiens, UniProt P30530).
T1 construct: endogenous in cells; host or cells: A-172 glioblastoma cells (ATCC #CRL-1620)
T1 sequence (P30530 26-894): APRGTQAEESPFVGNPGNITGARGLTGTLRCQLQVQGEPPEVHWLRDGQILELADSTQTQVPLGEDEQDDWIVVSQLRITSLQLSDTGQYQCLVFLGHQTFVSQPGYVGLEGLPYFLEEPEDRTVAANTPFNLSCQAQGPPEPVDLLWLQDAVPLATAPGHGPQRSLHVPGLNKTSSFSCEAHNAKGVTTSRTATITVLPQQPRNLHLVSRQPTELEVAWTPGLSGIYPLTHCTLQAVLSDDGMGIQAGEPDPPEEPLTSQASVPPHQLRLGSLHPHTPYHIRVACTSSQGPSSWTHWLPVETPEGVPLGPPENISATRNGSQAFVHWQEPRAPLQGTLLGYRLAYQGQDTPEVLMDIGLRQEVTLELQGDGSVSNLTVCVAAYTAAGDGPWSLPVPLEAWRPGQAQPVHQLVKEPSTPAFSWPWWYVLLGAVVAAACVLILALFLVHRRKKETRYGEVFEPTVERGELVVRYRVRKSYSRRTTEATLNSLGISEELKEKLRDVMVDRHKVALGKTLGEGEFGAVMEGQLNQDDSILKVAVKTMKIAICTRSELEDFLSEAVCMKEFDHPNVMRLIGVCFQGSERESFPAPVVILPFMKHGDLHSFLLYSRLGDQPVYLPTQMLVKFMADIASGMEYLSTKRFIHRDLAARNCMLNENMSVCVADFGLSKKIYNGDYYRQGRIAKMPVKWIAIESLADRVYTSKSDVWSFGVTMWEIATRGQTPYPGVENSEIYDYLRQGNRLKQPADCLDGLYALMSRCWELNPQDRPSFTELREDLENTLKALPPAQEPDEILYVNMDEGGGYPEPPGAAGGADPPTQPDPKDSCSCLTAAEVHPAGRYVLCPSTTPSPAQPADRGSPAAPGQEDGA
Put plainly: AXL autophosphorylation ELISA in A-172 cells. Format: cell-based. To be noted: Table 3 Cellular Activities, Gas6-stimulated, phospho-AXL ELISA. Here is the method: A-172 glioblastoma cells (ATCC #CRL-1620) were seeded at 2.5×10^5 cells/well onto 24-well plates (Greiner #662165), in DMEM (Thermo Fisher #11995-040) containing 10% FBS (Thermo Fisher #26140-079), 1% MEM NEAA (Thermo Fisher #11140-050), 1% GlutaMax (Thermo Fisher #35050-061), and 1% Penicillin Streptomycin (Thermo Fisher #15140-122). A-172 cells were incubated at 37° C., 5% CO2 for 24 h and then starved for 24 h in serum-free medium. Test compounds were serially diluted to produce an 8-point dose curve in fresh serum-free medium to a final concentration of 0.3% DMSO (vehicle) and added to the cells and incubated for 1 h. Cells were then stimulated with 1 μg/mL recombinant human Gas6 (R&D Systems #885-GSB-500) for 15 min, washed with cold PBS, and immediately lysed with 150 μL of cold 1× lysis buffer [20 mM Tris, 137 mM sodium chloride, 2 mM EDTA, 10% glycerol, 1% NP-40 alternative, 1 mM activated sodium orthovanadate, 1 mM PefaBloc SC (Sigma-Aldrich #11429868001), protease/phosphatase inhibitor tablet (Thermo Fisher #A32959)]. Lysates were collected and 100 μL/well added into the human phospho-AXL DuoSet IC ELISA (R&D Systems #DYC2228-2). Assay was performed according to manufacturer's instructions and sample phospho-AXL concentrations were extrapolated using human phospho-AXL control (R&D Systems #841645) as a standard. Positive control wells (100% activity) contained Gas6-stimulated, DMSO-treated cell lysates. Negative control wells (0% activity) contained Gas6-stimulated, reference inhibitor-treated cell lysates. IC50 values were calculated by nonlinear regression analysis using a 4-parameter logistic curve fit in ActivityBase XE (IDBS).

`COc1cc2nccc(Oc3ccc(NC(=O)c4cccn(-c5cc[n+]([O-])cc5)c4=O)cc3F)c2nc1OC` [Compound 247, N-[4-[(6,7-Dimethoxy-1,5-naphthyridin-4-yl)oxy]-3-fluorophenyl]-1-(1-oxidopyridin-1-ium-4-yl)-2-oxopyridine-3-carboxamide hydrochloride]: the IC50 on Met was at most 100 nM; against AXL it was 300 to 1000 nM.

Consider `COc1cnc2c(Oc3ccc(NC(=O)c4c(C)n(C)cc(-c5ccc(F)cn5)c4=O)cc3F)ccnc2c1` [Compound 73, N-[3-Fluoro-4-[(7-methoxy-1,5-naphthyridin-4-yl)oxy]phenyl]-5-(5-fluoropyridin-2-yl)-1,2-dimethyl-4-oxopyridine-3-carboxamide], for which the half-inhibitory concentration (IC50) at Met and against AXL was at most 100 nM throughout.

`COc1cnc2c(Oc3ccc(NC(=O)c4cn(CCF)c(C)c(-c5cc(C)cs5)c4=O)cc3F)ccnc2c1` [Compound 328, 1-(2-Fluoroethyl)-N-[3-fluoro-4-[(7-methoxy-1,5-naphthyridin-4-yl)oxy]phenyl]-6-methyl-5-(4-methylthiophen-2-yl)-4-oxopyridine-3-carboxamide]: the IC50 on Met and against AXL was at most 100 nM throughout.

As to `COc1cc2nccc(Oc3ccc(NC(=O)c4ccc(C)n(-c5ccnc(F)c5)c4=O)cc3F)c2nc1OC` [Compound 233, N-[4-[(6,7-Dimethoxy-1,5-naphthyridin-4-yl)oxy]-3-fluorophenyl]-1-(2-fluoropyridin-4-yl)-6-methyl-2-oxopyridine-3-carboxamide], the 50% inhibitory concentration (IC50) at Met and at AXL was at most 100 nM each time.

On to `CCOc1ccn(-c2ccc(F)cn2)c(=O)c1C(=O)Nc1ccc(Oc2ccnc3cc(OC)c(OC)nc23)c(F)c1` [Compound 243, N-[4-[(6,7-dimethoxy-1,5-naphthyridin-4-yl)oxy]-3-fluorophenyl]-4-ethoxy-1-(5-fluoropyridin-2-yl)-2-oxopyridine-3-carboxamide], for which the half-inhibitory concentration (IC50) at Met and against AXL was at most 100 nM throughout.

Take `COc1cc2nccc(Oc3ccc(NC(=O)c4cc(C(C)=O)c(C)n(-c5ccco5)c4=O)cc3F)c2nc1OC` [Compound 236, 5-Acetyl-N-[4-[(6,7-dimethoxy-1,5-naphthyridin-4-yl)oxy]-3-fluorophenyl]-1-(furan-2-yl)-6-methyl-2-oxopyridine-3-carboxamide]: the half-inhibitory concentration (IC50) was 300 to 1000 nM on Met and at most 100 nM at AXL.

Turning to `COc1cc2nccc(Oc3ccc(NC(=O)c4nccn(-c5ccc(F)cn5)c4=O)cc3F)c2nc1OC` [Compound 246, N-[4-[(6,7Dimethoxy-1,5-naphthyridin-4-yl)oxy]-3-fluorophenyl]-4-(5-fluoropyridin-2-yl)-3-oxopyrazine-2-carboxamide], the concentration for half-maximal inhibition (IC50) at Met and against AXL was at most 100 nM throughout.

With `COc1cnc2c(Oc3ccc(NC(=O)c4ccc(C)n(-c5ncc(F)cc5C)c4=O)cc3F)ccnc2c1` [Compound 52, N-[3-Fluoro-4-[(7-methoxy-1,5-naphthyridin-4-yl)oxy]phenyl]-1-(5-fluoro-3-methylpyridin-2-yl)-6-methyl-2-oxopyridine-3-carboxamide], the half-inhibitory concentration (IC50) at Met and at AXL was at most 100 nM in each case.

In the case of `COc1ccc2nccc(Oc3ccc(NC(=O)c4ccc(C)n(-c5ccc(F)cn5)c4=O)cc3F)c2n1` [Compound 47, N-[3-Fluoro-4-[(6-methoxy-1,5-naphthyridin-4-yl)oxy]phenyl]-1-(5-fluoropyridin-2-yl)-6-methyl-2-oxopyridine-3-carboxamide], the IC50 on Met and at AXL was at most 100 nM in each case.

In the case of `COc1cc2nccc(Oc3ccc(NC(=O)c4c5n(cc(-c6ccco6)c4=O)CCOC5)cc3)c2nc1OC` [Compound 298, N-[4-[(6,7-Dimethoxy-1,5-naphthyridin-4-yl)oxy]phenyl]-7-(furan-2-yl)-8-oxo-3,4-dihydro-1H-pyrido[2,1-c][1,4]oxazine-9-carboxamide], the IC50 was 300 to 1000 nM on Met and at most 100 nM on AXL.

Turning to `COc1cc2nccc(Oc3ccc(NC(=O)c4c5n(cc(-c6cccs6)c4=O)CCOC5)cc3)c2nc1OC` [Compound 299, N-[4-[(6,7-Dimethoxy-1,5-naphthyridin-4-yl)oxy]phenyl]-8-oxo-7-thiophen-2-yl-3,4-dihydro-1H-pyrido[2,1-c][1,4]oxazine-9-carboxamide], the half-inhibitory concentration (IC50) on Met and on AXL was at most 100 nM in each case.

As to `COc1cc2nccc(Oc3ccc(NC(=O)c4ccc(C)n(-c5ccnc(O)c5)c4=O)cc3F)c2nc1OC` [Compound 232, N-[4-[(6,7-Dimethoxy-1,5-naphthyridin-4-yl)oxy]-3-fluorophenyl]-1-(2-hydroxypyridin-4-yl)-6-methyl-2-oxopyridine-3-carboxamide], the 50% inhibitory concentration (IC50) on Met and on AXL was at most 100 nM each time.

For `COc1cc2nccc(Oc3ccc(NC(=O)c4cc(C#N)c(C)n(-c5ccc(F)cn5)c4=O)cc3F)c2nc1OC` [Compound 56, 5-Cyano-N-[4-[(6,7-dimethoxy-1,5-naphthyridin-4-yl)oxy]-3-fluorophenyl]-1-(5-fluoropyridin-2-yl)-6-methyl-2-oxopyridine-3-carboxamide], the half-inhibitory concentration (IC50) on Met and at AXL was at most 100 nM throughout.

Turning to `COc1cc2nccc(Oc3ccc(NC(=O)c4c(C)ncc(-c5ccc(F)cn5)c4O)cc3F)c2nc1OC` [Compound 68, N-[4-[(6,7-Dimethoxy-1,5-naphthyridin-4-yl)oxy]-3-fluorophenyl]-5-(5-fluoropyridin-2-yl)-4-hydroxy-2-methylpyridine-3-carboxamide], the half-maximal inhibitory concentration (IC50) on Met and against AXL was at most 100 nM in each case.

With `COc1cc2nccc(Oc3ccc(NC(=O)c4c5n(cc(-c6ccc(C)s6)c4=O)CCOC5)cc3F)c2nc1OC` [Compound 304, N-[4-[(6,7-Dimethoxy-1,5-naphthyridin-4-yl)oxy]-3-fluorophenyl]-7-(5-methylthiophen-2-yl)-8-oxo-3,4-dihydro-1H-pyrido[2,1-c][1,4]oxazine-9-carboxamide], the half-maximal inhibitory concentration (IC50) on Met and on AXL was at most 100 nM in each case.

With `COCCOc1cc2nccc(Oc3ccc(NC(=O)c4c(C)n(C)c(C)c(-c5cc6ccccc6o5)c4=O)cc3F)c2nc1OC` [Compound 263, 5-(1-Benzofuran-2-yl)-N-[3-fluoro-4-[[6-methoxy-7-(2-methoxyethoxy)-1,5-naphthyridin-4-yl]oxy]phenyl]-1,2,6-trimethyl-4-oxopyridine-3-carboxamide], the IC50 at Met was 300 to 1000 nM; against AXL it was at most 100 nM.

As for `COc1cc2nccc(Oc3ccc(NC(=O)c4cc(C(C)=O)c(C)n(-c5ccc(F)cn5)c4=O)cc3F)c2nc1OC` [Compound 59, 5-Acetyl-N-[4-[(6,7-dimethoxy-1,5-naphthyridin-4-yl)oxy]-3-fluorophenyl]-1-(5-fluoropyridin-2-yl)-6-methyl-2-oxopyridine-3-carboxamide], the concentration for half-maximal inhibition (IC50) at Met and against AXL was at most 100 nM throughout.

One may read the IC50 as the midpoint of a concentration-inhibition curve.
